A short description of the data set: Levothyroxine solubilization in aqueous amino acid solutions. The format is physicochemical. The conditions noted are these: aqueous buffer. Here is the method:
The formulations can further include one or more pH adjusters, for example, a single pH adjuster. The pH adjuster can be an amino acid, which can be the sole amino acid and pH adjuster in the formulation. The pH adjuster serves to aid in adjusting the pH of the aqueous formulation and selectively the solubilization of levothyroxine or any salt thereof in the liquid formulation. In one or more embodiments, the pH adjuster is arginine. In water, a concentration of arginine from about 1 mg/mL to about 20 mg/mL adjust the pH of water to about 10.3 to about 11.

Each structure is given as a SMILES string. Converted amounts (≈) assume the structure as drawn.

The term solubility denotes the concentration that dissolves in the medium under given conditions. A low value points to a poorly soluble substance.

Consider `N[C@@H](Cc1cc(I)c(Oc2cc(I)c(O)c(I)c2)c(I)c1)C(=O)O` [levothyroxine, 4-(4-hydroxy-3,5-diiodophenoxy)-3,5-diiodo-L-phenylalanine], for which the solubility runs as follows: (aqueous arginine solution, arginine in aqueous solutions) above 500 µg/mL; (aqueous aspartic acid solution, aspartic acid 1 mg/mL in water) 450 µg/mL (≈ 579 µM); (aqueous aspartic acid solution, aspartic acid 4 mg/mL in water) 100 µg/mL (≈ 129 µM).

The record behind these values is patent US20200237695A1, “LEVOTHYROXINE LIQUID FORMULATIONS” (Hikma Pharmaceuticals USA Inc., priority 2019, published 2020).
